Source: PubChem BioAssay (NCI)
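Results reflect a 48-hour exposure of cells in 96-well plates to compound at five concentrations. GI50 = concentration required for 50% inhibition of growth. At the TGI there is no net growth.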

Legend:
Assay in all cases: NCI-60 cell line screen, 48 h
[1] = test system: MCF7 breast
[2] = test system: DU-145 prostate
[3] = test system: A498 renal
[4] = test system: K-562 leukemia
[5] = test system: OVCAR-5 ovarian
[6] = test system: U251 CNS
[7] = test system: SNB-19 CNS
[8] = test system: OVCAR-3 ovarian
[9] = test system: 786-0 renal
[10] = test system: NCI-H522 lung

| SMILES | TGI [1] | TGI [2] | TGI [3] | TGI [4] | TGI [5] | TGI [6] | TGI [7] | TGI [8] | TGI [9] | TGI [10] | GI50 [1] | GI50 [2] | GI50 [3] | GI50 [4] | GI50 [5] | GI50 [6] | GI50 [7] | GI50 [8] | GI50 [10] |
| --- | --- | --- | --- | --- | --- | --- | --- | --- | --- | --- | --- | --- | --- | --- | --- | --- | --- | --- | --- |
| CC/C(Cl)=N\OC(=O)Nc1ccc(F)c([N+](=O)[O-])c1 | > 37.8 µM | 36.9 µM | 39.4 µM | > 24.5 µM | 44.9 µM | 46.3 µM | 33.7 µM | 18.3 µM | 26.8 µM |  |  |  |  |  |  |  |  |  |  |
| O=C1CCCc2cc3c(cc21)CC1(C3)Cc2ccc3c(c2C1)C(=O)CCC3 (stereo not drawn) | 42.8 µM | > 100 µM | > 100 µM | > 100 µM | > 100 µM | > 100 µM | > 100 µM | 69.9 µM | > 100 µM | > 100 µM |  |  |  |  |  |  |  |  |  |
| COc1ccc(N=NC(=Nc2ccc(F)cc2)c2ccc(N(CCC#N)CCC#N)cc2)cc1 | > 100 µM | > 100 µM | 76.3 µM | > 100 µM | > 100 µM | 84.4 µM | > 100 µM | > 100 µM | > 100 µM | 47 µM |  |  |  |  |  |  |  |  |  |
| CCOC(=O)C1(C(=O)OCC)CCCN1C(=O)[C@H](CNC(=O)OC(C)(C)C)NC(=O)OCc1ccccc1 | > 100 µM | > 100 µM |  | > 100 µM | > 100 µM | > 100 µM | > 100 µM | > 100 µM | > 100 µM |  |  |  |  |  |  |  |  |  |  |
| O=[N+]([O-])c1ccc(C2=Nc3ccccc3SC(c3ccccc3)C2)cc1 (stereo not drawn) |  |  | 47.9 µM | 67.6 µM | 36.6 µM | 26.3 µM | 32.3 µM |  |  | 26.7 µM |  |  |  |  |  |  |  |  |  |
| CN1COCc2cc3cc4c(cc3nc21)OCCO4 | > 100 µM |  | > 100 µM | > 100 µM | > 100 µM | > 100 µM | > 100 µM |  | > 100 µM | > 100 µM |  |  |  |  |  |  |  |  |  |
| O=C(Nc1ccc(-n2cc(-c3ccncc3)c(-c3ccc(O)c(Cl)c3)n2)cc1)Nc1cccc(Cl)c1Cl | > 32.5 µM | > 32.5 µM | > 32.5 µM | > 32.5 µM | > 32.5 µM | 25 µM | > 32.5 µM | > 32.5 µM |  | > 32.5 µM | 4.2 µM | 12.8 µM | 13.8 µM | 5.4 µM | > 32.5 µM | 2.54 µM | 15.8 µM | 6.67 µM | 4.03 µM |
| CCCOC(=O)NC(C)C(=O)NC(CCC(=O)NC(CCCC(N)C(=O)O)C(=O)NC(C)C(=O)O)C(=O)O (stereo not drawn) | > 100 µM | 65.3 µM | > 100 µM |  | > 100 µM | 55.9 µM | 71 µM | > 100 µM | > 100 µM | > 100 µM |  |  |  |  |  |  |  |  |  |
| CCOC(=O)C1CN(C2CC2)CCC1=O (stereo not drawn) | > 100 µM | > 100 µM |  | > 100 µM | > 100 µM | > 100 µM | > 100 µM | > 100 µM | > 100 µM |  |  |  |  |  |  |  |  |  |  |
| COc1cc2c(c(O)c1O)-c1ccc(OC)c(=O)cc1C(NC(C)=O)CC2 (stereo not drawn) |  |  | > 89.9 µM | 29.1 µM | > 100 µM | 25.8 µM | > 100 µM | 8.3 µM | > 82.8 µM | 6.48 µM |  |  |  |  |  |  |  |  |  |
| COC(=O)[C@H](C)NC(=O)[C@H](CSC)N1C(=O)N[C@@H](C(C)C)C1=O | > 100 µM | > 100 µM |  | > 100 µM | > 100 µM | > 100 µM | > 100 µM | > 100 µM | > 100 µM | > 100 µM |  |  |  |  |  |  |  |  |  |
| CCCCN(CCCC)C(=C(C(Cl)=C(Cl)Cl)[N+](=O)[O-])N(CCCC)CCCC |  | > 100 µM | > 100 µM | 4.69 µM | > 100 µM | > 100 µM | > 100 µM | > 100 µM | > 100 µM | > 100 µM |  |  |  |  |  |  |  |  |  |
| OC1(c2ccc(Cl)cc2)c2ccc(CN3CCCC3)cc2C2=NCCN21 (stereo not drawn) | 33.4 µM | 32.2 µM | 25.8 µM | 45.2 µM | 31.9 µM | 27.2 µM | 31.1 µM | 31.7 µM | 28.6 µM |  |  |  |  |  |  |  |  |  |  |
| O=C(CNCc1ccccc1)Oc1c(Cl)c(Cl)c(Cl)c(Cl)c1Cl | > 100 µM | 44.3 µM |  | > 100 µM | > 100 µM | 70.5 µM | > 100 µM | 62.9 µM | > 100 µM | 75.9 µM |  |  |  |  |  |  |  |  |  |
| COc1cc(C=C2C(=O)NC(=S)NC2=O)cc(OC)c1OC | > 100 µM | > 100 µM |  | > 100 µM | > 100 µM | > 100 µM | > 100 µM | > 100 µM | > 100 µM |  |  |  |  |  |  |  |  |  |  |
| O=C1CCc2ccc3c(c21)CC1(Cc2ccccc2C1)C3 | > 100 µM | > 100 µM |  |  | 44.2 µM | 74 µM | > 100 µM | 28.8 µM | 48.1 µM | 92.4 µM |  |  |  |  |  |  |  |  |  |
| NC(=O)c1ncn2c1NC(=O)CC2 | > 100 µM |  | > 100 µM | > 100 µM | > 100 µM | > 100 µM | > 100 µM | > 100 µM |  | > 100 µM |  |  |  |  |  |  |  |  |  |
| COP(=O)(OC)C12CCOCCN1c1ccccc1C2=O (stereo not drawn) | > 100 µM | > 100 µM | > 100 µM |  | > 100 µM | > 100 µM | > 100 µM | > 100 µM | > 100 µM | > 100 µM |  |  |  |  |  |  |  |  |  |
| COC(=O)C1=C(O)C(C(=O)OC)[C@@]2(O)[C@@H](C(=O)OC)[C@H](C)[C@@H](C)[C@@H]1[C@@H]2C(=O)OC (stereo partly drawn) | > 100 µM | > 100 µM | > 100 µM | > 100 µM | > 100 µM | > 100 µM | > 100 µM | 78.2 µM |  | 92.2 µM |  |  |  |  |  |  |  |  |  |
| CSC(SC)=C1C(=O)N(c2ccccc2)N=C1C | 46 µM |  | 90.5 µM | 66.8 µM | > 100 µM | > 100 µM | 98.1 µM |  | 62 µM | 59 µM |  |  |  |  |  |  |  |  |  |
| CCOC(=O)C(C)c1nc2c(Cl)c3ncccc3cc2[nH]c1=O (stereo not drawn) |  | > 100 µM | > 100 µM | > 100 µM | > 100 µM | > 100 µM | > 100 µM | > 100 µM | > 100 µM | > 100 µM |  |  |  |  |  |  |  |  |  |
| Cc1cc(/N=C/c2ccc(C#N)cc2)n(-c2ccccc2)n1 | > 100 µM | > 100 µM |  | > 100 µM | > 100 µM | > 100 µM | > 100 µM | > 100 µM | > 100 µM | > 100 µM |  |  |  |  |  |  |  |  |  |
